# Test results published in ChEMBL document CHEMBL3576828, “Acredinones A and B, voltage-dependent potassium channel inhibitors from the sponge-derived fungus Acremonium sp. F9A015” (J Nat Prod, 2015).
# Calls of active or inactive are those of the source. The rule behind the calls is not given here.
# What was measured:
# [1] = biological target: T1, Potassium voltage-gated channel subfamily B member 1 (Homo sapiens, UniProt Q14721); assay: (§1) Inhibition of Kv2.1 channel in […] INS1 cells assessed as inhibition of outward K+ current by electrophysiology/patch clamp technique; format: cell-based
# T1 sequence (Q14721 whole entry): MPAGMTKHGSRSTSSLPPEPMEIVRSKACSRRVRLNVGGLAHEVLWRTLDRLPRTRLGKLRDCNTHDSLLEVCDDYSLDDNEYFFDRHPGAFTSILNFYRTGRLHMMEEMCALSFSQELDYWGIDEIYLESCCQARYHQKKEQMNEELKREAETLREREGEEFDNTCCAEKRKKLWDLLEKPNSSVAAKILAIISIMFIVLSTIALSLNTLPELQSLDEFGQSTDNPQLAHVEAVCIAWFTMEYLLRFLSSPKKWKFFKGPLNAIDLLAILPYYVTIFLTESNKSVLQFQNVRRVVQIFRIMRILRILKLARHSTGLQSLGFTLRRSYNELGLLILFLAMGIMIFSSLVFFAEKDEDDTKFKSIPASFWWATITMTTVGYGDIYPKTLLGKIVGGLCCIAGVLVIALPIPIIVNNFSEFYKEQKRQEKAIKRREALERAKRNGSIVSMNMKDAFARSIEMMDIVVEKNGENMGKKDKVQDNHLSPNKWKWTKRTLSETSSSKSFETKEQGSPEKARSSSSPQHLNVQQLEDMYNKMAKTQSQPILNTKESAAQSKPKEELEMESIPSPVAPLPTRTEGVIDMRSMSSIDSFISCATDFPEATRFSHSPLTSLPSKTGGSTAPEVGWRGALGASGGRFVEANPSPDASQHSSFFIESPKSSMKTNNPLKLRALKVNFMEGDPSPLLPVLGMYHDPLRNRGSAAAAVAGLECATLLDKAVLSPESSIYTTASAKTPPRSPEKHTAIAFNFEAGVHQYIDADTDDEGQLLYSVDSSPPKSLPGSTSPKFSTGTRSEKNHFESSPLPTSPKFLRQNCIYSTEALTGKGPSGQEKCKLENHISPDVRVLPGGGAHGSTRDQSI
# [2] = biological target: T2, Potassium voltage-gated channel subfamily B member 1 (Homo sapiens) (UniProt Q14721); assay: as §1; format: cell-based
# T2 sequence (whole entry): T1 sequence (Q14721 whole entry)
IC50 [1] [µM],inhibition [2],SMILES
0.59,–,COc1cccc(OC)c1C(=O)c1c(O)cc(C)c(OC)c1C1=C(c2c(OC)cccc2OC)c2c(O)cc(C)c(OC)c2C1=O
–,inactive,COc1cccc(OC)c1C(=O)c1c(O)cc(C)c(OC)c1COC(C)=O
1,–,COc1cccc(OC)c1C(=O)c1c(O)cc(C)c(OC)c1CC(=O)c1c(OC)c(C)cc(O)c1C(=O)c1c(OC)cccc1OC
